Test results from paper PMC6374164 (Organic & biomolecular chemistry, 2019).

Columns and labels:
BPTF bromodomain = BPTF bromodomain (Homo sapiens, UniProt Q12830); experiment: PrOF NMR binding to 5FW-labeled BPTF bromodomain; details: 5FW BPTF bromodomain, 19F resonance of W2824
[1] = Aqueous solubility by solution turbidity; assay type: physicochemical
CDKL2 = target: T1, CDKL2 (Homo sapiens, UniProt Q92772); details: tested at 1 μM; cited from earlier work
T1 sequence (Q92772 1-493): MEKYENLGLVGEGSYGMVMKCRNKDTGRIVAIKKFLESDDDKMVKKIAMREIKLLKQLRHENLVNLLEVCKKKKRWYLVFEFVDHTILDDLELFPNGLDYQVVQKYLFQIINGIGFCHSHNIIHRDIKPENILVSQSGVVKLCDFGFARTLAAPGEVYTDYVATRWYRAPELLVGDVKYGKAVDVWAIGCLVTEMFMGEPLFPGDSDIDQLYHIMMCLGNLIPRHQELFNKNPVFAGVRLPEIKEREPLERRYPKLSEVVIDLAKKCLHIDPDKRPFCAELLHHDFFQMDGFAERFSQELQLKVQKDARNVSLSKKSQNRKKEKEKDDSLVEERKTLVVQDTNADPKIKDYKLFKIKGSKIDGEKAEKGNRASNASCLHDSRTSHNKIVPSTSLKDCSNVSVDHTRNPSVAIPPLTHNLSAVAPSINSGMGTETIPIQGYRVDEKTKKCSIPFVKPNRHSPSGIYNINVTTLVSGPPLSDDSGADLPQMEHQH

TRKC = TRKC (Homo sapiens, UniProt Q16288); details: tested at 1 μM; cited from earlier work
CDK11 = details: tested at 1 μM; cited from earlier work
TRKB = details: tested at 1 μM; cited from earlier work
HPK1 = details: tested at 1 μM; cited from earlier work
p38-δ = details: tested at 1 μM; cited from earlier work
parasite = details: cited from earlier work
BPTF = details: cited from earlier work
breast epithelial cells = details: cited from earlier work

Chain of TRKC (Q16288 32-839): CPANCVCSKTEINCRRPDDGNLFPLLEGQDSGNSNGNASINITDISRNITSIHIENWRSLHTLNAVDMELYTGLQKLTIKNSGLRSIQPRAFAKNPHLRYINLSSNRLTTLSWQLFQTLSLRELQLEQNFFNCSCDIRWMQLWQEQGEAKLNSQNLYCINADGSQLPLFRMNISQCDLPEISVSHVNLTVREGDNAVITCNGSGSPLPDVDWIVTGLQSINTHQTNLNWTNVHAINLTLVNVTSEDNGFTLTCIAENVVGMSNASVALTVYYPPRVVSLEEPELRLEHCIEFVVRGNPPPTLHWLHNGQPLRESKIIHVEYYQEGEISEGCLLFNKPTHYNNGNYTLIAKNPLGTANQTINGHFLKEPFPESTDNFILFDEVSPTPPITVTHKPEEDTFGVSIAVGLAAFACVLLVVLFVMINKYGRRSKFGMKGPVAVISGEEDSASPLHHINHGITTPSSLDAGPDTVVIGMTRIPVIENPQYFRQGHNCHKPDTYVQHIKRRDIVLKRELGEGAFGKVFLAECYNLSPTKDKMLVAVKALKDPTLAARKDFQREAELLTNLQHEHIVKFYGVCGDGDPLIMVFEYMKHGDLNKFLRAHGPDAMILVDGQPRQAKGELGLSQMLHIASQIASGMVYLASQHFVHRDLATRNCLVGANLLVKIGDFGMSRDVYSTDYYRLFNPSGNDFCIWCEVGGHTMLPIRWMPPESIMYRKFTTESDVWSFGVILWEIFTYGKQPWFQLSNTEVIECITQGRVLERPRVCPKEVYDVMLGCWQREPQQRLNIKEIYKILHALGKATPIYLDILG

COC(=O)c1cccc(NC(=O)NC2CCN(c3ccnc(Nc4ccc(F)cc4)n3)C2)c1 (racemic) [rac-1]
PrOF NMR binding behaviour of the 5FW BPTF resonance (BPTF bromodomain): significant broadening of the fluorine resonance | solubility (concentration above which solution turbidity increases) [1]: ~ 100 μM | inhibition of CDKL2 (CDKL2): 82% | inhibition of TRKC (TRKC): 82% | inhibition of CDK11 (CDK11): 51–68% | inhibition of TRKB (TRKB): 51–68% | inhibition of HPK1 (HPK1): 51–68% | inhibition of p38-δ (p38-δ): 51–68% | antimalarial activity (parasite): has shown antimalarial activity | transcription in a BPTF-specific reporter assay (BPTF): reducing transcription | effects in breast epithelial cells (breast epithelial cells): decreased c-MYC regulated genes, c-MYC chromatin occupancy, and led to G1 cell cycle arrest
